US7491794B2, “Macrocyclic compounds as inhibitors of viral replication” (Intermune, Inc., priority 2003, dated 2009)
Like-named read-outs stand apart in the source and are kept apart here.

Legend:
NS3-NS4 protease = target: T1, NS3-NS4 protease (Hepatitis C virus genotype 1a, UniProt P27958); experiment: NS3-NS4 protease assay / NS3 inhibition assay, Section C; assay type: biochemical; conditions: read-out: NS3-NS4 IC50
T1 construct: Recombinant E. coli or Baculovirus full-length NS3 was diluted to 3.33 μM with assay buffer; made in house; host or cells: E. coli or baculovirus (BV) system
Method: NS3 complex formation with NS4A-2.
Recombinant E. coli or Baculovirus full-length NS3 was diluted to 3.33 μM with assay buffer and transfered material to an eppendorf tube and place in water bath in 4° C. refrigerator. The appropriate amount of NS4A-2 to 8.3 mM in assay buffer was added to equal the volume of NS3 in step 2.1.1 (conversion factor −3.8 mg/272 μL assay buffer). The material was transferred to an eppendorf tube and place in water bath in 4° C. refrigerator.
After equilibration to 4° C., equal volumes of NS3 and NS4A-2 solutions were combined in an eppendorf tube, mix gently with a manual pipettor, and incubate mixture for 15 minutes in the 4° C. water bath. Final concentrations in the mixture are […] NS3, 4.15 mM NS4A-2 (2485-fold molar excess NS4A-2).
After 15 minutes at 4° C., the NS3/NS4A-2 eppendorf tube was removed and place it in a room temperature water bath for 10 minutes. NS3/NS4A-2 was alliquoted at appropriate volumes and store at −80° C. (E. coli NS3 run at 2 nM in assay, aliquot at 25 μL. BV NS3 run at 3 nM in assay, aliquot at 30 μL).
Step 2.2.5. Sample compounds were dissolved to 10 mM in DMSO then diluted to 2.5 mM (1:4) in DMSO.
Step 2.2.6. The E. coli. NS3/NS4A-2 was diluted to 4 nM NS3 (1:417.5 of […] stock−18 μL 1.67 μM stock+7497 μL assay buffer). The BV NS3/NS4A-2 was diluted to 6 nM NS3 (1:278.3 of 1.67 μM stock−24 μL 1.67 μM stock+6655 μL assay buffer).
Step 2.2.7. Using the manual multichannel pipettor, and being careful not to introduce bubbles into the plate, 50 μL assay buffer were added to wells A01-H01 of a black Costar 96-well polypropylene storage plate.
Step 2.2.8. Using the manual multichannel pipettor, and being careful not to introduce bubbles into the plate, 50 μL of diluted NS3/NS4A-2 from step 2.2.6 were added to wells A02-H12 of plate in step 2.2.7.
Step 2.2.9. Using the manual multichannel pipettor, and being careful not to introduce bubbles into the plate, 25 μL of the wells in drug dilution plate in step 2.2.5 were transferred to corresponding wells in assay plate in step 2.2.8. The tips on multichannel pipettor were changed for each row of compounds transferred.
Step 2.2.10. Using the manual multichannel pipettor, and being careful not to introduce bubbles into the plate, the contents of the wells from the assay plate in step 2.2.9 were mixed by aspirating and dispensing 35 μL of the 75 μL in each well five times. The tips on the multichannel pipettor were changed for each row of wells mixed.
Step 2.2.11. The plate was covered with a polystyrene plate lid, and the plate from step 2.2.10 containing NS3 protease and sample compounds was pre-incubated 10 minutes at room temperature.
While the plate from step 2.2.11 was pre-incubating, the RETS1 substrate was diluted in a 15 mL polypropylene centrifuge tube. The RETS1 substrate was diluted to 8 μM (1:80.75 of 646 μM stock−65 μL 646 μM stock+5184 μL assay buffer).
After the plate in step 2.2.11 was done pre-incubating, and using the manual multichannel, 25 μL of substrate were added to all wells on the plate. The contents of the wells of plate were quickly mixed, as in step 2.2.10, but mixing 65 μL of the 100 μL in the wells.
The plate was read in kinetic mode on the Molecular Devices SpectraMax Gemini XS plate reader. Reader settings: Read time: 30 minutes, Interval: 36 seconds, Reads: 51, Excitation λ: 335 nm, Emission λ: 495 nm, cutoff: 475 nm, Automix: off, Calibrate: once, PMT: high, Reads/well: 6, Vmax pts: 21 or 28/51 depending on length of linearity of reaction.
IC50s were determined using a four parameter curve fit equation, and converted to Ki's using the following Km's:
where Ki=IC50/(1+[S]/Km))

[1] = tested on: HCV sub-genomic replicon, GS4.3; experiment: Quantitation by ELISA of NPTII in the HCV sub-genomic replicon, GS4.3, Section C; assay type: cell-based; conditions: GS4.3 cells, 72 h incubation, read-out: EC50
Text: Quantitation by ELISA of the selectable marker protein, Neomycin phosphotransferase II (NPTII) in the HCV Sub-Genomic Replicon, GS4.3
The HCV sub-genomic replicon (1377/NS3-3′, accession No. AJ242652), stably maintained in HuH-7 hepatoma cells, was created by Lohmann et al. Science 285: 110-113 (1999). The replicon-containing cell culture, designated GS4.3, was obtained from Dr. Christoph Seeger of the Institute for Cancer Research, Fox Chase Cancer Center, Philadelphia, Pa.
GS4.3 cells were maintained at 37° C., 5% CO2, in DMEM (Gibco 11965-092) supplemented with L-glutamine 200 mM (100×) (Gibco25030-081), non-essential amino acids (NEAA)(Biowhittaker 13-114E), heat-inactivated (HI) Fetal Bovine Serum(FBS)(Hyclone SH3007.03) and 750 μg/ml geneticin (G418)(Gibco 10131-035). Cells were sub-divided 1:3 or 4 every 2-3 days.
24 h prior to the assay, GS4.3 cells were collected, counted, and plated in 96-well plates (Costar 3585) at 7500 cells/well in 100 μl standard maintenance medium (above) and incubated in the conditions above. To initiate the assay, culture medium was removed, cells were washed once with PBS (Gibco 10010-023) and 90 μl Assay Medium (DMEM, L-glutamine, NEAA, 10% HI FBS, no G418) was added. Inhibitors were made as a 10× stock in Assay Medium, (3-fold dilutions from 10 μM to […] final concentration, final DMSO concentration 1%), 10 μl were added to duplicate wells, plates were rocked to mix, and incubated as above for 72 h.
An NPTII Elisa kit was obtained from AGDIA, Inc. (Compound direct ELISA test system for Neomycin Phosphotransferase II, PSP 73000/4800). Manufacturer's instructions were followed, with some modifications. 10×PEB-1 lysis buffer was made up to include 500 μM PMSF (Sigma P7626, 50 mM stock in isopropanol). After 72 h incubation, cells were washed once with PBS and 150 μl PEB-1 with PMSF was added per well. Plates were agitated vigorously for 15 minutes, room temperature, then frozen at −70° C. Plates were thawed, lysates were mixed thoroughly, and 100 μl were applied to an NPTII Elisa plate. A standard curve was made. Lysate from DMSO-treated control cells was pooled, serially diluted with PEB-1 with PMSF, and applied to duplicate wells of the ELISA plate, in a range of initial lysate amount of 150u1-2.5 ul. In addition, 100 μl buffer alone was applied in duplicate as a blank. Plates were sealed and gently agitated at room temperature for 2 h. Following capture incubation, the plates were washed 5×300 μl with PBS-T (0.5% Tween-20, PBS-T was supplied in the ELISA kit). For detection, a 1× dilution of enzyme conjugate diluent MRS-2 (5×) was made in PBS-T, into which 1:100 dilutions of enzyme conjugates A and B were added, as per instructions. Plates were resealed, and incubated with agitation, covered, room temperature, for 2 h. The washing was then repeated and 100 μl of room temperature TMB substrate was added. After approximately 30 minutes incubation (room temperature, agitation, covered), the reaction was stopped with 50 μl 3M sulfuric acid. Plates were read at 450 nm on a Molecular Devices Versamax plate reader.
Inhibitor effect was expressed as a percentage of DMSO-treated control signal, and inhibition curves were calculated using a 4-parameter equation: y=A+((B−A)/(1+((C/x)^D))), where C is half-maximal activity or EC50.

T1 sequence (P27958 1027-1657): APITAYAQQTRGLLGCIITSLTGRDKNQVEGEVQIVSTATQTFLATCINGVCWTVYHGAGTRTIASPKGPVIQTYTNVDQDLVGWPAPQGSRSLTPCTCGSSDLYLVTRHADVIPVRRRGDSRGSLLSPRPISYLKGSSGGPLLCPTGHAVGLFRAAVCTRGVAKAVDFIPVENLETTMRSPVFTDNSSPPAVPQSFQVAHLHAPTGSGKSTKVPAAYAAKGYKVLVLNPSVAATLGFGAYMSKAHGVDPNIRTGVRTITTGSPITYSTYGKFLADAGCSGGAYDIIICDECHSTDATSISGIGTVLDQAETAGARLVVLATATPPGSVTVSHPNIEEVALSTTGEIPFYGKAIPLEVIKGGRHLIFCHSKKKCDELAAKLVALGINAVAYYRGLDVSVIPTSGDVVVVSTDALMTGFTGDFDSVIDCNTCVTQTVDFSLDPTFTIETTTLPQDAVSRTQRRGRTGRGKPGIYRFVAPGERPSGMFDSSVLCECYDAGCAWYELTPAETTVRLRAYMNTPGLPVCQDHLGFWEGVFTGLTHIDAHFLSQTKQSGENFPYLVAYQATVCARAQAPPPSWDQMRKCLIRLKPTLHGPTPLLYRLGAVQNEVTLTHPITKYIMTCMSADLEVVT

SMILES	IC50 (NS3-NS4 protease) [nM]	EC50 [1] [nM]	EC50 ([1]; Hepatitis C virus) [nM]
CN(C)S(=O)(=O)NC(=O)[C@@]12C[C@H]1C=CCCCCC[C@H](NC(=O)OC(C)(C)C)C(=O)N1C[C@H](OC(=O)N3Cc4ccccc4C3)C[C@H]1C(=O)N2 [Compound 101, (1S,4R,6S,14S,18R)-1,3-Dihydro-isoindole-2-carboxylic acid 14-tert-butoxycarbonylamino-4-(N,N-dimethylsulfonyl-aminocarbonyl)-2,15-dioxo-3,16-diaza-tricyclo[14.3.0.0^4,6]nonadec-7-en-18-yl ester]	< 100	< 100	
CC(C)(C)OC(=O)N[C@H]1CCCCC/C=C\[C@@H]2C[C@@]2(C(=O)NS(=O)(=O)NC2CC2)NC(=O)[C@@H]2C[C@@H](OC(=O)N3Cc4ccccc4C3)CN2C1=O [Compound 102]	< 100		< 100
CC(C)(C)OC(=O)N[C@H]1CCCCC/C=C\[C@@H]2C[C@@]2(C(=O)NS(=O)(=O)N2CCCC2)NC(=O)[C@@H]2C[C@@H](OC(=O)N3Cc4ccccc4C3)CN2C1=O [Compound 103, (1S,4R,6S,14S,18R)-1,3-Dihydro-isoindole-2-carboxylic acid 14-tert-butoxycarbonylamino-4-(pyrrolidinosulfonyl-aminocarbonyl)-2,15-dioxo-3,16-diaza-tricyclo[14.3.0.0^4,6]nonadec-7-en-18-yl ester]	< 100		< 100
CC(C)(C)OC(=O)N[C@H]1CCCCC/C=C\[C@@H]2C[C@@]2(C(=O)NS(=O)(=O)N2CCOCC2)NC(=O)[C@@H]2C[C@@H](OC(=O)N3Cc4ccccc4C3)CN2C1=O [Compound 104, (1S,4R,6S,14S,18R)-1,3-Dihydro-isoindole-2-carboxylic acid 14-tert-butoxycarbonylamino-4-(morpholinosulfonyl-aminocarbonyl)-2,15-dioxo-3,16-diaza-tricyclo[14.3.0.0^4,6]nonadec-7-en-18-yl ester]	< 100		< 100
CN(C)S(=O)(=O)NC(=O)[C@@]12C[C@H]1/C=C\CCCCC[C@H](NC(=O)OC(C)(C)C)C(=O)N1C[C@H](OC(=O)N3CCc4ccccc4C3CN3CCCCC3)C[C@H]1C(=O)N2 (stereo partly drawn) [Compound 107, (1S,4R,6S,14S,18R)-1-Piperidin-1-ylmethyl-3,4-dihydro-1H-isoquinoline-2-carboxylic acid 14-tert-butoxycarbonylamino-2,15-dioxo-4-(N,N-dimethyl-sulfonylaminocarbonyl)-3,16-diaza-tricyclo[14.3.0.0^4,6]nonadec-7-en-18-yl ester]	< 100		< 100
CC(C)(C)OC(=O)N[C@H]1CCCCC/C=C\[C@@H]2C[C@@]2(C(=O)NS(=O)(=O)N2CCCC2)NC(=O)C2C[C@@H](OC(=O)N3CCc4ccccc4C3CN3CCOCC3)CN2C1=O (stereo partly drawn) [Compound 111, (1S,4R,6S,14S,18R)-1-Morpholine-4-ylmethyl-3,4-dihydro-1H-isoquinoline-2-carboxylic acid 14-tert-butoxycarbonylamino-2,15-dioxo-4-(pyrrolidine-1-sulfonylaminocarbonyl)-3,16-diaza-tricyclo[14.3.0.0^4,6]nonadec-7-en-18-yl ester]	< 100		
CC(C)(C)OC(=O)N[C@H]1CCCCC/C=C\[C@@H]2C[C@@]2(C(=O)NS(=O)(=O)N2CCCC2)NC(=O)C2C[C@@H](OC(=O)NC(CN3CCOCC3)c3ccccc3)CN2C1=O (stereo partly drawn) [Compound 112, (1S,4R,6S,14S,18R)-(2-Morpholin-4-yl-1-phenyl-ethyl)-carbamic acid 14-tert-butoxycarbonylamino-2,15-dioxo-4-(pyrrolidine-1-sulfonylaminocarbonyl)-3,16-diaza-tricyclo[14.3.0.0^4,6]nonadec-7-en-18-yl ester]	< 100		
CC(C)(C)OC(=O)N[C@H]1CCCCC/C=C\[C@@H]2C[C@@]2(C(=O)NS(=O)(=O)N2CCNCC2)NC(=O)[C@@H]2C[C@@H](OC(=O)N3Cc4ccccc4C3)CN2C1=O [Compound 120, (1S,4R,6S,14S,18R)-1,3-Dihydro-isoindole-2-carboxylic acid 14-tert-butoxycarbonylamino-4-(piperazine-1-sulfonyl-aminocarbonyl)-2,15-dioxo-3,16-diaza-tricyclo[14.3.0.0^4,6]nonadec-7-en-18-yl ester]	< 100		
CC(C)(C)OC(=O)N[C@H]1CCCCC/C=C\[C@@H]2C[C@@]2(C(=O)NS(=O)(=O)NC2(C#N)CC2)NC(=O)[C@@H]2C[C@@H](OC(=O)N3Cc4ccccc4C3)CN2C1=O [Compound 123, (1S,4R,6S,14S,18R)-1,3-Dihydro-isoindole-2-carboxylic acid 14-tert-butoxycarbonylamino-4-(N-(1-cyanocyclopropyl)aminosulfonyl-aminocarbonyl)-2,15-dioxo-3,16-diaza-tricyclo[14.3.0.0^4,6]nonadec-7-en-18-yl ester]	< 100		
